Values belong to the compound of their own block, whether it stands above or below them.
Columns and labels:
[1] = target: T1, Proto-oncogene tyrosine-protein kinase Src (Homo sapiens, UniProt P12931); assay: Inhibition of Src protein tyrosine kinase at 0.01 uM
[2] = target: T1, Proto-oncogene tyrosine-protein kinase Src; assay: Inhibition of Src protein tyrosine kinase at 0.1 uM
LoVo = assay: Inhibition of LOVO cell proliferation; conditions: Homo sapiens
[3] = target: Dual specificity mitogen-activated protein kinase kinase 1 (Homo sapiens, UniProt Q02750); assay: Inhibition of Dual specificity mitogen-activated protein kinase kinase (MEK-1)
Dual specificity mitogen-activated protein kinase kinase 1, sequence (Q02750 whole entry): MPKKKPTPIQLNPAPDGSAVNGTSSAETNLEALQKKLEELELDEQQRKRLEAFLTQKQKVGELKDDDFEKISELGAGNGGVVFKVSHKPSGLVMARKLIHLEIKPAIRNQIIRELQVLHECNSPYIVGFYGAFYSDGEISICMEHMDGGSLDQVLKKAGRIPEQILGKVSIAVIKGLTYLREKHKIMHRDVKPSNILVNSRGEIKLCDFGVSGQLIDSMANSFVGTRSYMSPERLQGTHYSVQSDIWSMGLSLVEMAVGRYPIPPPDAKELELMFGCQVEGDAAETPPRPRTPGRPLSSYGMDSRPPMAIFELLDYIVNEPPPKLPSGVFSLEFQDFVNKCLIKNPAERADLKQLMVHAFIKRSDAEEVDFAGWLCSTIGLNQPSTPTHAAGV

[4] = target: T1, Proto-oncogene tyrosine-protein kinase Src
SW-620 = assay: Inhibition of SW620 cell proliferation; conditions: Homo sapiens
[5] = target: Epidermal growth factor receptor (Homo sapiens, UniProt P00533); assay: Inhibition of epidermal growth factor receptor (EGFR)
Epidermal growth factor receptor, sequence (P00533 whole entry): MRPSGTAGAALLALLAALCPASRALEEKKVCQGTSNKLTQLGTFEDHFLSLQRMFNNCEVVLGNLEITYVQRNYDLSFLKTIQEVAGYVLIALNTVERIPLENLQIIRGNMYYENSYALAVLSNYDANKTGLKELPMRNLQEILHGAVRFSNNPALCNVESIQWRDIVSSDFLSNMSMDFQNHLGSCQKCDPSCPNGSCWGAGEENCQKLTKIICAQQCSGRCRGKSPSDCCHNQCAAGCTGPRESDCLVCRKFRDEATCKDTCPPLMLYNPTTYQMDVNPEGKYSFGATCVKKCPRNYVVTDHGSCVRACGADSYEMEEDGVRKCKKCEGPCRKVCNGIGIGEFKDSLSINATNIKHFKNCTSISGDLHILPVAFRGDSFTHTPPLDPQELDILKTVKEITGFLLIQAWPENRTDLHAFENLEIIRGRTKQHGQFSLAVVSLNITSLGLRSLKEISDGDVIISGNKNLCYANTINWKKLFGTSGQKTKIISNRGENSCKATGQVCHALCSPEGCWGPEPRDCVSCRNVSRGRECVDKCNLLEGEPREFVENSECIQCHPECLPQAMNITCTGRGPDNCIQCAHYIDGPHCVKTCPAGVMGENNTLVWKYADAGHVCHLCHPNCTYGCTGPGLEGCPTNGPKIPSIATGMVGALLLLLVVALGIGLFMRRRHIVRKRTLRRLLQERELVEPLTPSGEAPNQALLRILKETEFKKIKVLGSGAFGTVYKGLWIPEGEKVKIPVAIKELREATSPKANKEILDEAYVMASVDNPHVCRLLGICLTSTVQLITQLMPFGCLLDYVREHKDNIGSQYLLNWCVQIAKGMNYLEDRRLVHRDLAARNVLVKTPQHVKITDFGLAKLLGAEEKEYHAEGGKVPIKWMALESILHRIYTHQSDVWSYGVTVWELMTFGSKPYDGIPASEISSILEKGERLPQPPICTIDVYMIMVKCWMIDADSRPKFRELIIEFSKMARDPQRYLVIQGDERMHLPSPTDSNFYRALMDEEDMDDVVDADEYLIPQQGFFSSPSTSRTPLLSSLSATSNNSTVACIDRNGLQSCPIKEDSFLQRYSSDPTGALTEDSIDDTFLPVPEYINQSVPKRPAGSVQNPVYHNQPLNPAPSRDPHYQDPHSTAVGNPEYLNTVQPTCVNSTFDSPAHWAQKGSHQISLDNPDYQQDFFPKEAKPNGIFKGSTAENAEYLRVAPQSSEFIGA

T1 sequence (P12931 2-536 limits assumed): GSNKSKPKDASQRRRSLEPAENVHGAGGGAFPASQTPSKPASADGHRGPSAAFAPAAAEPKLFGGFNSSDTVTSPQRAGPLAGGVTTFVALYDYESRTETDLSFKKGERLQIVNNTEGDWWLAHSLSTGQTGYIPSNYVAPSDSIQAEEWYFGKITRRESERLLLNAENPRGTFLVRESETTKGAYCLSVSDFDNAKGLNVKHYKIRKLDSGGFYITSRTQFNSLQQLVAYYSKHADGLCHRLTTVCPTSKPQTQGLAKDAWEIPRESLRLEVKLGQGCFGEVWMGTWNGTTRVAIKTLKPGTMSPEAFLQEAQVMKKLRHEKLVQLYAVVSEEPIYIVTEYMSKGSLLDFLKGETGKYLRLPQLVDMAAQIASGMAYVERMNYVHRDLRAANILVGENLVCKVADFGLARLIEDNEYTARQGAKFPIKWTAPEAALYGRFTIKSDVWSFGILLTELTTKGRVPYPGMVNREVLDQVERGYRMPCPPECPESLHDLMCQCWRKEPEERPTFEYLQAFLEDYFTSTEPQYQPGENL

inhibition [1]: 10%
Compound: N#Cc1cnc2cc3cc(O)c(O)cc3cc2c1Nc1ccc(Cl)cc1Cl

inhibition [2]: 30%
Compound: COc1ccc2cc3ncc(C#N)c(Nc4ccc(Cl)cc4Cl)c3cc2c1

IC50 (LoVo): 670 nM
IC50 [3]: 10 nM
Compound: COc1cc2cc3ncc(C#N)c(Nc4ccc(Oc5ccccc5)cc4)c3cc2cc1OC

IC50 [4]: 38 nM
Compound: COc1cc2ncc(C#N)c(Nc3ccc(Cl)cc3Cl)c2cc1OC

inhibition [2]: 30%
Compound: COc1ccc2cc3c(Nc4ccc(Cl)cc4Cl)c(C#N)cnc3cc2c1

IC50 (SW-620): 1990 nM
IC50 [5]: 18000 nM
Compound: COc1cc2cc3ncc(C#N)c(Nc4ccc(F)c(Cl)c4)c3cc2cc1OC

Reference: ChEMBL document CHEMBL1136058, “4-Anilino-3-cyanobenzo[g]quinolines as kinase inhibitors” (Bioorg Med Chem Lett, 2002)
